Results taken from PMC8881512 (Nature Communications, 2022).
Where “and” joins values, the source holds several entries; their conditions need not be identical. Equal values may be shown once.

Legend:
[1] = system: melanoma B16 cells; assay: Cell proliferation, B16; type: cell-based; settings: 0.5 µM or 2 µM VT02956 for 4 days; Supplementary Fig. 8f
Experimental: Cell proliferation rates were determined by automated cell counter. In brief, cells were plated at density of 0.1 million cells per well in six-well plate. Cell numbers were counted by the indicated time point as stated in the figure legends.

[2] = system: 4T1 cells; assay: Cell viability, 4T1; type: cell-based
[3] = biological target: T1, NEK11 (Homo sapiens, UniProt Q8NG66); assay: Kinome profiling; type: biochemical; settings: VT02956 (5 nM), read-out: % enzymatic activity relative to DMSO controls
T1 construct: LATS1/LATS2 enzymes from Signalchem

[4] = biological target: T2, TYK2 (Homo sapiens, UniProt P29597); assay: Kinome profiling; type: biochemical; settings: VT02956 (5 nM)
T2 construct: LATS1/LATS2 enzymes from Signalchem

[5] = biological target: T3, CAMK2d (Homo sapiens, UniProt Q13557); assay: Kinome profiling; type: biochemical; settings: VT02956 (5 nM), read-out: % enzymatic activity relative to DMSO controls
T3 construct: LATS1/LATS2 enzymes from Signalchem

[6] = biological target: T4, PKAcg (Homo sapiens, UniProt P22612); assay: Kinome profiling; type: biochemical; settings: VT02956 (5 nM), read-out: % enzymatic activity relative to DMSO controls
T4 construct: LATS1/LATS2 enzymes from Signalchem

[7] = biological target: T5, FER (Homo sapiens, UniProt P16591); assay: Kinome profiling; type: biochemical; settings: VT02956 (5 nM), read-out: % enzymatic activity relative to DMSO controls
T5 construct: LATS1/LATS2 enzymes from Signalchem

[8] = biological target: T6, PKA (Homo sapiens, UniProt P17612); assay: Kinome profiling; type: biochemical; settings: VT02956 (5 nM), read-out: % enzymatic activity relative to DMSO controls
T6 construct: LATS1/LATS2 enzymes from Signalchem

[9] = system: Phospho-YAP (Ser127) in 4T1 cells; assay: Cellular Phospho-YAP HTRF assay, 4T1; type: cell-based; settings: for YAP phosphorylation: 4T1, Fig.5d
[10] = biological target: T7, STK38L/NDR2 (Homo sapiens, UniProt Q9Y2H1); assay: Kinome profiling; type: biochemical; settings: VT02956 (5 nM), read-out: % enzymatic activity relative to DMSO controls
T7 construct: LATS1/LATS2 enzymes from Signalchem

[11] = biological target: T8, BTK (Homo sapiens, UniProt Q06187); assay: Kinome profiling; type: biochemical; settings: VT02956 (5 nM)
T8 construct: LATS1/LATS2 enzymes from Signalchem

[12] = biological target: T9, p70S6Kb/RPS6KB2 (Homo sapiens, UniProt Q9UBS0); assay: Kinome profiling; type: biochemical; settings: VT02956 (5 nM), read-out: % enzymatic activity relative to DMSO controls
T9 construct: LATS1/LATS2 enzymes from Signalchem

[13] = system: ER+ breast tumour organoids (BTO-02); assay: 3D organoids drug response assay (CellTiter-Glo 3D); type: cell-based, human; settings: 3D drug killing assay; 12 days after compound treatment; Fig. 6b
Experimental: Breast tumour organoids were dissociated into single cells using TrypLE Express and counted with automated cell counter. Subsequently, 1000 cells were mixed in 10 μl BME type 2, seeded onto 96-well plate in triplicate and overlaid with 100 μl BC organoid medium (BOM) after BME gelation. Three days after organoids sphere formation, medium was removed and replaced by 100 μl of complete medium containing VT02956 (0, 0.04, 0.2, 1, 5 μM) or vehicle (DMSO). The drug-containing medium was refreshed every 3 days for additional 3–4 times. At the end of the treatment, the effect of the drugs on the tumour organoids, in terms of the organoids cell growth, was assayed with CellTiter-Glo 3D (Promega) according to the manufacturer’s instructions and were normalised to vehicle controls (0.5% DMSO content). The IC50 values was calculated in GraphPad Prism 8.

[14] = biological target: T10, STK38/NDR1 (Homo sapiens, UniProt Q15208); assay: Kinome profiling; type: biochemical; settings: VT02956 (5 nM), read-out: % enzymatic activity relative to DMSO controls
T10 construct: LATS1/LATS2 enzymes from Signalchem

[15] = biological target: T11, CDK9/cyclin T2 (Homo sapiens, UniProt P50750); assay: Kinome profiling; type: biochemical; settings: VT02956 (5 nM), read-out: % enzymatic activity relative to DMSO controls
T11 construct: LATS1/LATS2 enzymes from Signalchem

[16] = biological target: T12, CK2a (Homo sapiens, UniProt P68400); assay: Kinome profiling; type: biochemical; settings: VT02956 (5 nM), read-out: % enzymatic activity relative to DMSO controls
T12 construct: LATS1/LATS2 enzymes from Signalchem

[17] = system: Phospho-YAP (Ser127) in HEK293A cells; assay: Cellular Phospho-YAP HTRF assay, HEK293A; type: cell-based; settings: for YAP phosphorylation: 293A, Fig.5d
Experimental: Compound inhibition of […] YAP phosphorylation were performed based on commercial Phospho-YAP (Ser127) kit (Cisbio). In brief, HEK293A cells at 80%-100% confluence was rinsed with PBS, digested in 0.25% Trypsin-EDTA and centrifuged at 1000 × g for 3 min. The cell pellet was resuspended with appropriate volume of serum-free medium, counted using automated cell counter (Invitrogen), adjusted to a working density of 2.9 × 10^6/ml and dispensed into 384-well small volume white plate (Greiner) at 12 μl/well (3.5 × 10^4 cells) using Thermo Multidrop Combi microplate dispenser. At the time of detection, 36 nl DMSO contain 3-fold serial diluted compounds ranging from 10,000 to 4.6 nM were added into designed wells by Eco system and incubated at 37 °C for 120 min. Cell were lysed by adding 4 μl lysis buffer (4x), and incubated for 45 min at room temperature under shaking. HTRF reaction was performed by adding 4 μl of premixed phospho-YAP Cryptate antibody/Phospho-YAP d2 antibody solution prepared in the detection buffer and incubate at room temperature overnight. […] The compound inhibition was calculated by the formula, inhibition % = ([…]) × 100/ (HPE−ZPE). HPE represent 100% effect and ZPE is 0% effect. The data processing procedures were similar as in vitro LATS kinase inhibition assay.

[18] = biological target: T13, IKKb/IKBKB (Homo sapiens, UniProt O14920); assay: Kinome profiling; type: biochemical; settings: VT02956 (5 nM), read-out: % enzymatic activity relative to DMSO controls
T13 construct: LATS1/LATS2 enzymes from Signalchem

[19] = biological target: T14, PKMYT1 (Homo sapiens, UniProt Q99640); assay: Kinome profiling; type: biochemical; settings: VT02956 (5 nM)
T14 construct: LATS1/LATS2 enzymes from Signalchem

[20] = biological target: T15, MUSK (Homo sapiens, UniProt O15146); assay: Kinome profiling; type: biochemical; settings: VT02956 (5 nM), read-out: % enzymatic activity relative to DMSO controls
T15 construct: LATS1/LATS2 enzymes from Signalchem

[21] = biological target: T16, HGK/MAP4K4 (Homo sapiens, UniProt O95819); assay: Kinome profiling; type: biochemical; settings: VT02956 (5 nM), read-out: % enzymatic activity relative to DMSO controls
T16 construct: LATS1/LATS2 enzymes from Signalchem

[22] = biological target: T17, RSK1 (Homo sapiens, UniProt Q15418); assay: Kinome profiling; type: biochemical; settings: VT02956 (5 nM), read-out: % enzymatic activity relative to DMSO controls
T17 construct: LATS1/LATS2 enzymes from Signalchem

[23] = biological target: T18, AKT2 (Homo sapiens, UniProt P31751); assay: Kinome profiling; type: biochemical; settings: VT02956 (5 nM), read-out: % enzymatic activity relative to DMSO controls
T18 construct: LATS1/LATS2 enzymes from Signalchem

[24] = biological target: T19, PKN1/PRK1 (Homo sapiens, UniProt Q16512); assay: Kinome profiling; type: biochemical; settings: VT02956 (5 nM), read-out: % enzymatic activity relative to DMSO controls
T19 construct: LATS1/LATS2 enzymes from Signalchem

[25] = biological target: T20, MSK2/RPS6KA4 (Homo sapiens, UniProt O75676); assay: Kinome profiling; type: biochemical; settings: VT02956 (5 nM), read-out: % enzymatic activity relative to DMSO controls
T20 construct: LATS1/LATS2 enzymes from Signalchem

T3 sequence (Q13557 whole entry): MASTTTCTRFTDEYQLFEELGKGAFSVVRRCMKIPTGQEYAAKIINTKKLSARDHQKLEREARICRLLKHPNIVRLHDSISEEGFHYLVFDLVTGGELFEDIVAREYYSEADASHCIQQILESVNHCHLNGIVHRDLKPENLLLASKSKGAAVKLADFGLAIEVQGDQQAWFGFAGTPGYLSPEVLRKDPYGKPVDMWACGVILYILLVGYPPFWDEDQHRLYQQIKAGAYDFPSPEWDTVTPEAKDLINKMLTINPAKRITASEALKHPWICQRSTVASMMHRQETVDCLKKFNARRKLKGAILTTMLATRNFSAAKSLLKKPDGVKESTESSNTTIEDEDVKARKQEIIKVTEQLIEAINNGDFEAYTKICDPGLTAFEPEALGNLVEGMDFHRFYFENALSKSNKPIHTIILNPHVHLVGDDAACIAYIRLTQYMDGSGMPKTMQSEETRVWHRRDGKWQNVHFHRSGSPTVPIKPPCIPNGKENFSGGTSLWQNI
T2 sequence (P29597 whole entry): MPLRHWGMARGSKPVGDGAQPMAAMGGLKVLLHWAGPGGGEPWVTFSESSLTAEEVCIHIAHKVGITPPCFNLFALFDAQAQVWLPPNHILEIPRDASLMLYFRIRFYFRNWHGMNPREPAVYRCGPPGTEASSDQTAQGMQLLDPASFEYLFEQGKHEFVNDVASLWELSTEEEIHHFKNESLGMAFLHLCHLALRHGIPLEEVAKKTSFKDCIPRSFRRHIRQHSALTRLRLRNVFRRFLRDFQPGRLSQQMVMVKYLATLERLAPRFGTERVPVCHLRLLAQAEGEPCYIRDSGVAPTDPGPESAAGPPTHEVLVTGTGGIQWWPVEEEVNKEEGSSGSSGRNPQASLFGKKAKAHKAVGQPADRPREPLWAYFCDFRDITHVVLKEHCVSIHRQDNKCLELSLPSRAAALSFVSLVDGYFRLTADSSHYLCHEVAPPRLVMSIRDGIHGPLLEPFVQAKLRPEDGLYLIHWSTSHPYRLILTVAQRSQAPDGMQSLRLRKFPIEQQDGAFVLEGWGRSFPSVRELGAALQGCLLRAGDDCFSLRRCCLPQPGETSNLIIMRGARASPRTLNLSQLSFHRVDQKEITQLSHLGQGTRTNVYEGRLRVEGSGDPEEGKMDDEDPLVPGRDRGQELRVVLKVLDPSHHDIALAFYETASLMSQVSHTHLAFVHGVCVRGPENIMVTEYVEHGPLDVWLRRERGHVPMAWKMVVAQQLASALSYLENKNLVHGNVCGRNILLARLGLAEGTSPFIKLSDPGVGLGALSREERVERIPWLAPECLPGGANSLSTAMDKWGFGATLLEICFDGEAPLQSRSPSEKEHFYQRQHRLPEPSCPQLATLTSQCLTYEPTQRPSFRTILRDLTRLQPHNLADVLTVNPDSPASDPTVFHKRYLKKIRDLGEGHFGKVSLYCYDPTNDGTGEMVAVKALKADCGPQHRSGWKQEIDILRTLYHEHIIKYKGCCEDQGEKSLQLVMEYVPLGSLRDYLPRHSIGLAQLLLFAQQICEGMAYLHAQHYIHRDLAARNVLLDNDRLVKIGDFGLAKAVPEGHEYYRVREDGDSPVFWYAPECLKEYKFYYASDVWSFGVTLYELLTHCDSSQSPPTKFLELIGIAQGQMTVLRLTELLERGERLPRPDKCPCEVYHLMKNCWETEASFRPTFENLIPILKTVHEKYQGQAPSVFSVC
T11 sequence (P50750 whole entry): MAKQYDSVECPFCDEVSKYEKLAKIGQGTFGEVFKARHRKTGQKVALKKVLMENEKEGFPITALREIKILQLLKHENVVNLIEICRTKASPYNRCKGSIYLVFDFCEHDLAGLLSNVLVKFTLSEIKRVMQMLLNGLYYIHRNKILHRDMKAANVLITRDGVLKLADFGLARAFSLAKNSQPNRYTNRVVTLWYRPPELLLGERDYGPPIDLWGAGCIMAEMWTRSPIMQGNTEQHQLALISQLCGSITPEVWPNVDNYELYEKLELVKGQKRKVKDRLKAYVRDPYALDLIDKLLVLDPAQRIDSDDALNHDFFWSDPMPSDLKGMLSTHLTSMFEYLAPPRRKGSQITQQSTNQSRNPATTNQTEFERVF
T11 sequence (O60583 whole entry partner): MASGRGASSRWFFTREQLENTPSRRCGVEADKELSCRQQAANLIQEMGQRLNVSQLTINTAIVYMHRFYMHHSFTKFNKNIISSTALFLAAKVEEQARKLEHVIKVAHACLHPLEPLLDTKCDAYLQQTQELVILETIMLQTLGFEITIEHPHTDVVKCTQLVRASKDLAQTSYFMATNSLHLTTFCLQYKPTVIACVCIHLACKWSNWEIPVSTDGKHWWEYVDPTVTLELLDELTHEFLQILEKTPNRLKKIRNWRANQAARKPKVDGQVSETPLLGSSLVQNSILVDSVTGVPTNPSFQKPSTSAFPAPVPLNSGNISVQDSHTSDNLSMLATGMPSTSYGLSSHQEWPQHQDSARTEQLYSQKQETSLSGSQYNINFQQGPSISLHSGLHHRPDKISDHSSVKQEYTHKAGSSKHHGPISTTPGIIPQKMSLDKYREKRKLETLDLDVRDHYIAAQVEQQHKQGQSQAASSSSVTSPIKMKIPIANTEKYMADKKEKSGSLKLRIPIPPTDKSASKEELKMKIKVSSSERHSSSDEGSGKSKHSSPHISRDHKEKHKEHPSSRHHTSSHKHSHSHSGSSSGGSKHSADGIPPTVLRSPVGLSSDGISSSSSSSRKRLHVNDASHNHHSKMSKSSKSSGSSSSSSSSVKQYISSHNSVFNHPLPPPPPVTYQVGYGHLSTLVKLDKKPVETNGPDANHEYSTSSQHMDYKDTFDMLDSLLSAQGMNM
T8 sequence (Q06187 whole entry): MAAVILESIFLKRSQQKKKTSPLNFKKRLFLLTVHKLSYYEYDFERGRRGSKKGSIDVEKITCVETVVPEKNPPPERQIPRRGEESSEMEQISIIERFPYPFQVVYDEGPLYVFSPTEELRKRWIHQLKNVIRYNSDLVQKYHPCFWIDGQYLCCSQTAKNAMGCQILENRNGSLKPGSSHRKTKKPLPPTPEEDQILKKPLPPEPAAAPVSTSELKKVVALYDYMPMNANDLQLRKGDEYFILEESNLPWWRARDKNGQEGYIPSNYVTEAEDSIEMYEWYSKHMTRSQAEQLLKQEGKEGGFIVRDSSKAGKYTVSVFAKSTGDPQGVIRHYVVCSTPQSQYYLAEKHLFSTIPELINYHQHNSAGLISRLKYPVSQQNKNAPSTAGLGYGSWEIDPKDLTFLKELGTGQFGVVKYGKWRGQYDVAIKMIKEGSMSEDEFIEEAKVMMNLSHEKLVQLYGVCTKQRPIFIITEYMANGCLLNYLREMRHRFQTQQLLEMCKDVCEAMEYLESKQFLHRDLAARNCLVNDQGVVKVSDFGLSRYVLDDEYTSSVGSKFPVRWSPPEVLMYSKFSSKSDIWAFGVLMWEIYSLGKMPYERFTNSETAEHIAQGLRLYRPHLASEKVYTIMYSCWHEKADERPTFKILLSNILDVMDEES
T16 sequence (O95819 whole entry): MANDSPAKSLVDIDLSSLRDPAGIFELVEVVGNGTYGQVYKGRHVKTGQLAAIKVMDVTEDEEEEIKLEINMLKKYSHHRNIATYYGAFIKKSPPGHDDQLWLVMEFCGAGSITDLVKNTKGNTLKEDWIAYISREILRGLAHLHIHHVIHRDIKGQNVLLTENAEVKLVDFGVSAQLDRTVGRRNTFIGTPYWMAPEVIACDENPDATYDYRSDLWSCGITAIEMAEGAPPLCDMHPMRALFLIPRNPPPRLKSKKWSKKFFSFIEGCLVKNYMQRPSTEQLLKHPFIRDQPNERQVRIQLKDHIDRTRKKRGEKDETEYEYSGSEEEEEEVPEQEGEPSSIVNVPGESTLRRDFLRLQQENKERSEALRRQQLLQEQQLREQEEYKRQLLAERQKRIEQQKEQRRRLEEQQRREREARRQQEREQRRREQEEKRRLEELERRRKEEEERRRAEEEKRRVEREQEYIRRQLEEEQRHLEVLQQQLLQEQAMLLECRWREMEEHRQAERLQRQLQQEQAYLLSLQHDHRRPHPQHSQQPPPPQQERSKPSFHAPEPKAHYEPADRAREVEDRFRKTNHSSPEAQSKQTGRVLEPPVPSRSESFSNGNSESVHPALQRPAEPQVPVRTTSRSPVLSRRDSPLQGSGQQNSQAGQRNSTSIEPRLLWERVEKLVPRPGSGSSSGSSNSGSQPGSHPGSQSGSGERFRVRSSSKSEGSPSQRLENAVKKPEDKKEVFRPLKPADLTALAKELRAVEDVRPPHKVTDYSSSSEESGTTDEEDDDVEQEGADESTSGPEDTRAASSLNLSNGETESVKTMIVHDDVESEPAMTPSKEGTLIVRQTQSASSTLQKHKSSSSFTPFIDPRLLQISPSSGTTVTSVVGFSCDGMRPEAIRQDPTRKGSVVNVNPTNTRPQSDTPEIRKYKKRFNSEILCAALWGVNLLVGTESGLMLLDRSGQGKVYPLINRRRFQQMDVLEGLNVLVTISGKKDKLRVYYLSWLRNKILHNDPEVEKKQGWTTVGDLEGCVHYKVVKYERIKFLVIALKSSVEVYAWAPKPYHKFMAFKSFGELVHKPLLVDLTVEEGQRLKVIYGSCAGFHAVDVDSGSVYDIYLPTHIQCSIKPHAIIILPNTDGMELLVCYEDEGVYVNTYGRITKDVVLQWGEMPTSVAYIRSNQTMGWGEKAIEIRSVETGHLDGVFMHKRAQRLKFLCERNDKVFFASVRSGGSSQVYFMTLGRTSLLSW
T12 sequence (P68400 whole entry): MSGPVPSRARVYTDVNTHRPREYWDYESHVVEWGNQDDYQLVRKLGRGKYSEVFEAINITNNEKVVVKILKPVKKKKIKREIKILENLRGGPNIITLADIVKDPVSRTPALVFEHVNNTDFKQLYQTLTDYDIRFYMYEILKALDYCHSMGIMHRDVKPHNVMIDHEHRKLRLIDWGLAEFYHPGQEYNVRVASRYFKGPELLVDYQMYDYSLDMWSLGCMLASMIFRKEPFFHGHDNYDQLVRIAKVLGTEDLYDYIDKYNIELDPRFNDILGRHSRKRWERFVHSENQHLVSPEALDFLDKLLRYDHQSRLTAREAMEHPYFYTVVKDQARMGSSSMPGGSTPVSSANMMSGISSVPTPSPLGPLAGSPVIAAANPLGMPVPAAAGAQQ

SMILES: NCC1CCN(c2nc(-c3ccncc3)nc3c(C#CCO)cccc23)CC1 [VT02956]
- growth of ER negative melanoma B16 cells [1]: had little effect
- IC50 ([2]; Mus musculus, 4T1 cells, n = 2, read-out: Cell viability inhibition IC50): > 10000 nM
- growth of ER negative breast cancer cells 4T1 (cell viability) ([2]; increasing concentrations of VT02956, Supplementary Fig. 8g): does not inhibit the growth
- remaining activity at 0.005 µM [3]: 82%
- % enzymatic activity relative to DMSO controls [4]: 78%
- remaining activity at 0.005 µM [5]: 77%
- remaining activity at 0.005 µM [6]: 28%
- remaining activity at 0.005 µM [7]: 78%
- remaining activity at 0.005 µM [8]: 68%
- YAP phosphorylation ([9]; Conc. 0.00457247 (µM)): 95.8709 and 110.479
- YAP phosphorylation ([9]; Conc. 0.0137174 (µM)): 110.398 and 92.919
- YAP phosphorylation ([9]; Conc. 0.0411523 (µM)): 99.5656 and 109.183
- YAP phosphorylation ([9]; Conc. 0.123457 (µM)): 90.8642 and 77.798
- YAP phosphorylation ([9]; Conc. 0.37037 (µM)): 55.9969 and 62.3937
- IC50 ([9]; Mus musculus, 4T1 cells, read-out: YAP phosphorylation IC50): 430 nM
- remaining activity at 0.005 µM [10]: 29%
- % enzymatic activity relative to DMSO controls [11]: 83%
- remaining activity at 0.005 µM [12]: 65%
- growth of ER+ breast tumour organoids (BTOs) [13]: sensitive
- remaining activity at 0.005 µM [14]: 16%
- remaining activity at 0.005 µM [15]: 74%
- remaining activity at 0.005 µM [16]: 85%
- YAP phosphorylation ([17]; Conc. 0.00457247 (µM)): 88.3714 and 102.283
- YAP phosphorylation ([17]; Conc. 0.0137174 (µM)): 105.168 and 111.221
- YAP phosphorylation ([17]; Conc. 0.0411523 (µM)): 96.441 and 81.638
- YAP phosphorylation ([17]; Conc. 0.123457 (µM)): 73.179 and 42.0107
- YAP phosphorylation ([17]; Conc. 0.37037 (µM)): 20.9423 and 23.4127
- YAP phosphorylation ([17]; Conc. 1.11111 (µM)): 9.018 and 5.767
- IC50 ([17]; HEK293-A, 2 h, HEK293A cells, 120 min, read-out: YAP phosphorylation IC50): 160 nM
- remaining activity at 0.005 µM [18]: 86%
- % enzymatic activity relative to DMSO controls [19]: 77%
- remaining activity at 0.005 µM [20]: 85%
- remaining activity at 0.005 µM [21]: 85%
- remaining activity at 0.005 µM [22]: 86%
- remaining activity at 0.005 µM [23]: 85%
- remaining activity at 0.005 µM [24]: 69%
- remaining activity at 0.005 µM [25]: 78%
